Test results: patent US12721928B1, “Active agent-eluting hemostatic agents for prevention of surgical site infection” (priority 2020, dated 2026)
Where two headings read alike, the source gives them in different places.

Key:
[1] = system: cultured cells; conditions: EDC up to 10 mg/mL; cited from earlier work
[2] = FTIR of antibiotic released from hemostatic agents (structural integrity); conditions: all released samples
Excerpt: FTIR spectra were collected on a Nicolet Is10 to ensure structural integrity of antibiotics released from the hemostatic agents. Released samples were scanned in the range between 4000 and 800 cm^−1.

[3] = system: S. aureus; experiment: Modified Kirby-Bauer disk diffusion test; type: cell-based, Staphylococcus aureus; conditions: filter paper on S. aureus coated agar
Description: Inhibition of S. Aureus 25293 or E. Coli (Migula) Castellani and Chalmers by antibiotic-eluting hemostatic agents was determined through modified Kirby-Bauer disk diffusion tests and microdilution assays. Throughout all Kirby-Bauer tests, agar plates were formed using tryptic soy agar. The plates were subsequently coated with the appropriate strain within its exponential growth phase at a concentration of 10^8 CFU/mL. Filter papers that had been incubated with the hemostatic agents, gelatin, or pure antibiotic equivalent to 24-hour release concentrations for two hours were then immediately placed upon the plates. Zones of inhibition were measured and photographed following 16-18 hours of incubation at 37° C.

[4] = system: mammalian cells; conditions: cited from earlier work

| Molecule | basic chemical stability of released antibiotic [2] | zone of inhibition (ZOI) [3] | other results |
| --- | --- | --- | --- |
| CCN=C=NCCCN(C)C [EDC, 1-ethyl-3-(3-dimethylaminopropyl) carbodiimide] |  |  | cytotoxicity to cultured cells [1]: negligibly cytotoxic |
| CC(C)(O/N=C(\C(=O)N[C@@H]1C(=O)N2C(C(=O)[O-])=C(C[n+]3ccccc3)CS[C@H]12)c1csc(N)n1)C(=O)O [ceftazidime] | confirmed |  |  |
| CCCCCCCCCC(=O)N[C@@H](Cc1c[nH]c2ccccc12)C(=O)N[C@H](CC(N)=O)C(=O)N[C@@H](CC(=O)O)C(=O)N[C@@H]1C(=O)NCC(=O)N[C@@H](CCCN)C(=O)N[C@@H](CC(=O)O)C(=O)N[C@H](C)C(=O)N[C@@H](CC(=O)O)C(=O)NCC(=O)N[C@H](CO)C(=O)N[C@@H]([C@H](C)CC(=O)O)C(=O)N[C@@H](CC(=O)c2ccccc2N)C(=O)O[C@@H]1C [daptomycin] |  | clear zone of inhibition |  |
| CN[C@H](CC(C)C)C(=O)N[C@H]1C(=O)N[C@@H](CC(N)=O)C(=O)N[C@H]2C(=O)N[C@H]3C(=O)N[C@H](C(=O)N[C@H](C(=O)O)c4cc(O)cc(O)c4-c4cc3ccc4O)[C@H](O)c3ccc(c(Cl)c3)Oc3cc2cc(c3O[C@@H]2O[C@H](CO)[C@@H](O)[C@H](O)[C@H]2O[C@H]2C[C@](C)(N)[C@H](O)[C@H](C)O2)Oc2ccc(cc2Cl)[C@H]1O [vancomycin] | confirmed | clear zone of inhibition | toxicity to mammalian cells ([4]; each component separately): minimally toxic |
| gelatin |  |  | toxicity to mammalian cells [4]: minimally toxic |
